Source: ChEMBL document CHEMBL4184120, “Target ROS to induce apoptosis and cell cycle arrest by 5,7-dimethoxy-1,4-naphthoquinone derivative” (Bioorg Med Chem Lett, 2018)
Active and inactive are the calls of the source. The calls are words filed in the database; no cut-off is given here.

Key:
HeLa = assay: Antiproliferative activity against human HeLa cells after 48 hrs by MTT assay; type: functional, cell-based
HepG2 = assay: Antiproliferative activity against human HepG2 cells after 48 hrs by MTT assay; type: functional, cell-based; conditions: HepG2, 48 h
A549 = assay: Antiproliferative activity against human A549 cells after 48 hrs by MTT assay; type: functional, cell-based; conditions: A549, 48 h
NCI-H460 = assay: Antiproliferative activity against human NCI-H460 cells after 48 by hrs MTT assay; type: functional, cell-based
HL-60 [1] = assay: Antiproliferative activity against human HL60 cells after 48 hrs by MTT assay; type: functional, cell-based; conditions: HL-60, 48 h
K562 = assay: Antiproliferative activity against human K562 cells after 48 hrs by MTT assay; type: functional, cell-based; conditions: K562, 48 h
WI-38 = assay: Antiproliferative activity against human WI38 cells after 48 hrs by MTT assay; type: cell-based; conditions: WI-38, 48 h
[2] = Selectivity index, ratio of IC50 for human WI38 cells to IC50 for human HL60 cells; type: toxicity; conditions: WI38 cells and HL60 cells, read-out: Ratio IC50
HL-60 [3] = assay: Induction of ROS generation in human HL60 cells after 6 hrs by DCFH-DA staining-based fluorescence microscopic analysis; type: functional, cell-based
HL-60 [4] = assay: Induction of ROS generation in human HL60 cells at 4 uM incubated for 6 hrs starting from 1 hr post antioxidant NAC addition by DCFH-DA staining-based fluorescence microscopic analysis; type: functional, cell-based
HL-60 [5] = assay: Induction of apoptosis in human HL60 cells assessed as condensed nuclei formation after 24 hrs by Hoechst-33342 staining-based fluorescence microscopic analysis; type: functional, cell-based
HL-60 [6] = assay: Induction of apoptosis in human HL60 cells assessed as nuclear fragmentation after 24 hrs by Hoechst-33342 staining-based fluorescence microscopic analysis; type: functional, cell-based
HL-60 [7] = assay: Induction of apoptosis in human HL60 cells assessed as early apoptotic cells at 1 uM after 48 hrs by Annexin V-FITC/propidium iodide staining based flow cytometry (reference value: 3.13%); type: functional
HL-60 [8] = assay: Induction of apoptosis in human HL60 cells assessed as late apoptotic cells at 1 uM after 48 hrs by Annexin V-FITC/propidium iodide staining based flow cytometry (reference value: 1.23%); type: functional
HL-60 [9] = assay: Induction of apoptosis in human HL60 cells assessed as early apoptotic cells at 2 uM after 48 hrs by Annexin V-FITC/propidium iodide staining based flow cytometry (reference value: 3.13%); type: functional
HL-60 [10] = assay: Induction of apoptosis in human HL60 cells assessed as late apoptotic cells at 2 uM after 48 hrs by Annexin V-FITC/propidium iodide staining based flow cytometry (reference value: 1.23%); type: functional
HL-60 [11] = assay: Induction of apoptosis in human HL60 cells assessed as early apoptotic cells at 4 uM after 48 hrs by Annexin V-FITC/propidium iodide staining based flow cytometry (reference value: 3.13%); type: functional
HL-60 [12] = assay: Induction of apoptosis in human HL60 cells assessed as late apoptotic cells at 4 uM after 48 hrs by Annexin V-FITC/propidium iodide staining based flow cytometry (reference value: 1.23%); type: functional
HL-60 [13] = assay: Induction of apoptosis in human HL60 cells assessed as late apoptotic cells at 4 uM incubated for 48 hrs starting from 1 hr post antioxidant NAC addition by Annexin V-FITC/propidium iodide staining based flow cytometry (reference value: 1.23%); type: functional
HL-60 [14] = assay: Induction of apoptosis in human HL60 cells assessed as early apoptotic cells at 4 uM incubated for 48 hrs starting from 1 hr post antioxidant NAC addition by Annexin V-FITC/propidium iodide staining based flow cytometry (reference value: 3.13%); type: functional
HL-60 [15] = assay: Induction of apoptosis in human HL60 cells assessed as early apoptotic cells after 48 hrs by Annexin V-FITC/propidium iodide staining based flow cytometry; type: functional, cell-based
HL-60 [16] = assay: Induction of apoptosis in human HL60 cells assessed as late apoptotic cells after 48 hrs by Annexin V-FITC/propidium iodide staining based flow cytometry; type: functional, cell-based
HL-60 [17] = assay: Induction of apoptosis in human HL60 cells assessed as necrotic cells after 48 hrs by Annexin V-FITC/propidium iodide staining based flow cytometry; type: functional, cell-based
HL-60 [18] = assay: Cell cycle arrest in human HL60 cells assessed as accumulation at G0/G1 phase at 1 uM after 48 hrs by propidium iodide staining based assay (reference value: 50.88%); type: functional
HL-60 [19] = assay: Cell cycle arrest in human HL60 cells assessed as accumulation at S phase at 1 uM after 48 hrs by propidium iodide staining based assay (reference value: 46.44%); type: functional
HL-60 [20] = assay: Cell cycle arrest in human HL60 cells assessed as accumulation at G2/M phase at 1 uM after 48 hrs by propidium iodide staining based assay (reference value: 2.68%); type: functional
HL-60 [21] = assay: Cell cycle arrest in human HL60 cells assessed as accumulation at G0/G1 phase at 2 uM after 48 hrs by propidium iodide staining based assay (reference value: 50.88%); type: functional
HL-60 [22] = assay: Cell cycle arrest in human HL60 cells assessed as accumulation at S phase at 2 uM after 48 hrs by propidium iodide staining based assay (reference value: 46.44%); type: functional
HL-60 [23] = assay: Cell cycle arrest in human HL60 cells assessed as accumulation at G2/M phase at 2 uM after 48 hrs by propidium iodide staining based assay (reference value: 2.68%); type: functional
HL-60 [24] = assay: Cell cycle arrest in human HL60 cells assessed as accumulation at G0/G1 phase at 4 uM after 48 hrs by propidium iodide staining based assay (reference value: 50.88%); type: functional
HL-60 [25] = assay: Cell cycle arrest in human HL60 cells assessed as accumulation at S phase at 4 uM after 48 hrs by propidium iodide staining based assay (reference value: 46.44%); type: functional
HL-60 [26] = assay: Cell cycle arrest in human HL60 cells assessed as accumulation at G2/M phase at 4 uM after 48 hrs by propidium iodide staining based assay (reference value: 2.68%); type: functional
HL-60 [27] = assay: Cell cycle arrest in human HL60 cells assessed as accumulation at G0/G1 phase at 4 uM incubated for 48 hrs starting from 1 hr post antioxidant NAC addition by propidium iodide staining based assay (reference value: 50.88%); type: functional
HL-60 [28] = assay: Cell cycle arrest in human HL60 cells assessed as accumulation at S phase at 4 uM incubated for 48 hrs starting from 1 hr post antioxidant NAC addition by propidium iodide staining based assay (reference value: 46.44%); type: functional
HL-60 [29] = assay: Cell cycle arrest in human HL60 cells assessed as accumulation at G2/M phase at 4 uM incubated for 48 hrs starting from 1 hr post antioxidant NAC addition by propidium iodide staining based assay (reference value: 2.68%); type: functional
HL-60 [30] = assay: Induction of apoptosis in human HL60 cells assessed as condensed nuclei formation at 4 uM preincubated for 1 hr with antioxidant NAC measured after 24 hrs by Hoechst-33342 staining-based fluorescence microscopic analysis; type: functional, cell-based
HL-60 [31] = assay: Induction of apoptosis in human HL60 cells assessed as nuclear fragmentation at 4 uM preincubated for 1 hr with antioxidant NAC measured after 24 hrs by Hoechst-33342 staining-based fluorescence microscopic analysis; type: functional, cell-based
[32] = Selectivity ratio of IC50 for human K562 cells to IC50 for human HL60 cells; type: functional
[33] = Redox potential of the compound in pH 7.4 PBS buffer assessed as reduction potential at 0.4 mM by cyclic voltametry; type: physicochemical; conditions: pH 7.4, 400 µM
[34] = Redox potential of the compound in pH 7.4 PBS buffer assessed as oxidation potential at 0.4 mM by cyclic voltametry; type: physicochemical; conditions: pH 7.4, 400 µM
[35] = Redox potential of the compound in pH 7.4 PBS buffer assessed as half wave potential at 0.4 mM by cyclic voltametry; type: physicochemical; conditions: pH 7.4, 400 µM

Compound: CCCCC1=C(Cl)C(=O)c2cc(OC)cc(OC)c2C1=O
- IC50 (HeLa): 22.3 µM
- IC50 (HepG2): 23.1 µM
- IC50 (A549): 24.1 µM
- IC50 (NCI-H460): 38.7 µM
- IC50 (HL-60 [1]): 3.8 µM
- IC50 (K562): 32.3 µM
- IC50 (WI-38): 40.7 µM
- selectivity ratio [2]: 10.7
- Activity (HL-60 [3]): Dose-dependent effect
- Activity (HL-60 [4]): inactive
- Activity (HL-60 [5]): Dose-dependent effect
- Activity (HL-60 [6]): Dose-dependent effect
- Activity (HL-60 [7]): 4.48%
- Activity (HL-60 [8]): 14.9%
- Activity (HL-60 [9]): 7.35%
- Activity (HL-60 [10]): 20.9%
- Activity (HL-60 [11]): 26.6%
- Activity (HL-60 [12]): 40.4%
- Activity (HL-60 [13]): 6.78%
- Activity (HL-60 [14]): 2.08%
- Activity (HL-60 [15]): Dose-dependent effect
- Activity (HL-60 [16]): Dose-dependent effect
- Activity (HL-60 [17]): Dose-dependent effect
- Activity (HL-60 [18]): 35.72%
- Activity (HL-60 [19]): 51.13%
- Activity (HL-60 [20]): 13.15%
- Activity (HL-60 [21]): 34.89%
- Activity (HL-60 [22]): 47.42%
- Activity (HL-60 [23]): 17.69%
- Activity (HL-60 [24]): 18.18%
- Activity (HL-60 [25]): 49.89%
- Activity (HL-60 [26]): 31.93%
- Activity (HL-60 [27]): 48.52%
- Activity (HL-60 [28]): 43.67%
- Activity (HL-60 [29]): 7.8%
- Activity (HL-60 [30]): Active
- Activity (HL-60 [31]): Active
- Ratio IC50 [32]: 8
- Activity [33]: -0.235 V
- Activity [34]: -0.169 V
- Activity [35]: -0.202 V
